The nature of one data set: in vitro. Conditions: human, uninfected SupT1 cells.
In data set [1] the test system is downmodulation of MHC-I molecules expressed on the surface of HIV infected SupT1 cells. Briefly: cells. The settings on record: for EC50: Human immunodeficiency virus 1, SUP-T1, read-out: EC50 for inhibition of MHC-I downmodulation utilizing the R1 parameter; for activity at 100 µM: Human immunodeficiency virus 1, SUP-T1, read-out: R1 @ 100 μM (R1 value for MHC-I downmodulation as % of the vehicle control).

Bounds are passed on as bounds.

Usually CC50 stands for the concentration giving 50% cytotoxicity. Low readings indicate harm at low concentration, high ones better tolerance by the cells. One may read the EC50 as the concentration giving half of the maximal effect. `CC1(C)Cc2cccc(OCC(=O)Nc3nc4c(Br)cccc4s3)c2O1` [Compound 1, N-(4-bromobenzo[d]thiazol-2-yl)-2-((2,2-dimethyl-2,3-dihydrobenzofuran-7-yl)oxy)acetamide] yielded a CC50 at 48 h in the data set “in vitro” greater than 90 µM. In addition, the EC50 in data set [1] turned out to be 0.12 µM.
Take `Cc1ccc(NC(=O)COc2cccc3c2OC(C)(C)C3)nn1` [Compound 2, 2-((2,2-Dimethyl-2,3-dihydrobenzofuran-7-yl)oxy)-N-(6-methylpyridazin-3-yl)acetamide]: the half-maximal cytotoxic concentration (CC50) at 48 h in “in vitro” is greater than 90 µM. Moreover, in data set [1], the half-maximal effective concentration (EC50) was found to be 2.1 µM.
For the compound `CC1(C)Cc2cccc(OCC(=O)Nc3nc4c(s3)CCCCC4)c2O1` [Compound 3, 2-((2,2-Dimethyl-2,3-dihydrobenzofuran-7-yl)oxy)-N-(5,6,7,8-tetrahydro-4H-cyclohepta[d]thiazol-2-yl)acetamide], the CC50 at 48 h in “in vitro” is greater than 100 µM. In addition, the concentration for a half-maximal effect (EC50) in data set [1] worked out at 0.2 µM.
For the compound `CC1(C)Cc2cccc(OCC(=O)Nc3nc4c(F)c(F)c(F)cc4s3)c2O1` [Compound 4, 2-((2,2-Dimethyl-2,3-dihydrobenzofuran-7-yl)oxy)-N-(4,5,6-trifluorobenzo [d]thiazol-2-yl)acetamide], in the data set “in vitro”, the CC50 at 48 h was greater than 100 µM. The concentration giving a half-maximal response (EC50) in data set [1] came out at 0.068 µM.
Taken in the same sequence, the figures for `CC1(C)Cc2cccc(OCC(=O)Nc3nc(C4CC4)cs3)c2O1` [Compound 5, N-(4-Cyclopropylthiazol-2-yl)-2-((2,2-dimethyl-2,3-dihydrobenzofuran-7-yl)oxy)acetamide] were greater than 100 µM and 0.55 µM.
Regarding `CC1(C)Cc2cccc(OCC(=O)Nc3nc4c(F)c(F)ccc4s3)c2O1` [Compound 6, N-(4,5-Difluorobenzo[d]thiazol-2-yl)-2-((2,2-dimethyl-2,3-dihydrobenzofuran-7-yl)oxy)acetamide], in “in vitro”, the cytotoxic concentration (CC50) at 48 h turned out to be 36 µM. Also, in data set [1], the concentration for a half-maximal effect (EC50) was determined as 6.3 µM.
In “in vitro”, `CC1(C)Cc2cccc(OCC(=O)Nc3ccccn3)c2O1` [Compound 7, 2-((2,2-Dimethyl-2,3-dihydrobenzofuran-7-yl)oxy)-N-(pyridin-2-yl) acetamide] returned a CC50 greater than 100 µM and a CC50 at 48 h greater than 100 µM. For the same compound, in data set [1], the EC50 is greater than 25 µM and the activity at 100 µM was 34%.
`Cc1cccc(NC(=O)COc2cccc3c2OC(C)(C)C3)n1` [Compound 8, 2-((2,2-Dimethyl-2,3-dihydrobenzofuran-7-yl)oxy)-N-(6-methylpyridin-2-yl) acetamide] gave a CC50 at 48 h in the data set “in vitro” greater than 100 µM. Besides, the EC50 in data set [1] came out at 23 µM.
For `Cc1cnc(NC(=O)COc2cccc3c2OC(C)(C)C3)cn1` [Compound 9, 2-((2,2-Dimethyl-2,3-dihydrobenzofuran-7-yl)oxy)-N-(5-methylpyrazin-2-yl)acetamide] the same measures were greater than 125 µM and 0.5 µM.
In the data set “in vitro”, `CC1(C)Cc2cccc(OCC(=O)Nc3cncc4ccccc34)c2O1` [Compound 10, 2-((2,2-Dimethyl-2,3-dihydrobenzofuran-7-yl)oxy)-N-(isoquinolin-4-yl) acetamide] yielded a CC50 greater than 100 µM and a CC50 at 48 h greater than 100 µM. In addition, in data set [1], the EC50 is greater than 25 µM and the activity at 100 µM amounted to 46%.
In “in vitro”, `Cc1ccc(NC(=O)COc2cccc3c2OC(C)(C)C3)cn1` [Compound 11, 2-((2,2-Dimethyl-2,3-dihydrobenzofuran-7-yl)oxy)-N-(6-methylpyridin-3-yl) acetamide] showed a 50% cytotoxic concentration (CC50) greater than 100 µM and a CC50 at 48 h greater than 100 µM. In data set [1], the EC50 was greater than 25 µM and the activity at 100 µM was found to be 48%.
In the data set “in vitro”, `CC1(C)Cc2cccc(OCC(=O)Nc3ccc(C(F)(F)F)nc3)c2O1` [Compound 12, 2-((2,2-Dimethyl-2,3-dihydrobenzofuran-7-yl)oxy)-N-(6-(trifluoromethyl)pyridin-3-yl)acetamide] gave a 50% cytotoxic concentration (CC50) greater than 100 µM and a CC50 at 48 h greater than 100 µM. Moreover, in data set [1], the 50% effective concentration (EC50) is greater than 25 µM and the activity at 100 µM was 51%.
`CC1(C)Cc2cccc(OCC(=O)Nc3cccc4nccnc34)c2O1` [Compound 13, 2-((2,2-Dimethyl-2,3-dihydrobenzofuran-7-yl)oxy)-N-(quinoxalin-5-yl) acetamide]: in the data set “in vitro”, the CC50 was greater than 100 µM and the CC50 at 48 h was greater than 100 µM. In data set [1], the EC50 was greater than 25 µM and the activity at 100 µM is 63%.
On to `CC1(C)Cc2cccc(OCC(=O)Nc3cccc4cnccc34)c2O1` [Compound 14, 2-((2,2-Dimethyl-2,3-dihydrobenzofuran-7-yl)oxy)-N-(isoquinolin-5-yl) acetamide], for which, in “in vitro”, the CC50 is greater than 100 µM and the half-maximal cytotoxic concentration (CC50) at 48 h is greater than 100 µM. Further, in data set [1], the EC50 was greater than 25 µM and the activity at 100 µM is 18%.
`CC1(C)Cc2cccc(OCC(=O)Nc3ncnc4ccccc34)c2O1` [Compound 15, 2-((2,2-Dimethyl-2,3-dihydrobenzofuran-7-yl)oxy)-N-(quinazolin-4-yl) acetamide]: in the data set “in vitro”, the CC50 was greater than 100 µM and the CC50 at 48 h is greater than 100 µM. For the same compound, in data set [1], the EC50 is greater than 25 µM and the activity at 100 µM turned out to be 14%.
In the data set “in vitro”, `CC1(C)Cc2cccc(OCC(=O)Nc3ccc4ccccc4n3)c2O1` [Compound 16, 2-((2,2-Dimethyl-2,3-dihydrobenzofuran-7-yl)oxy)-N-(quinolin-2-yl) acetamide] showed a half-maximal cytotoxic concentration (CC50) at 48 h greater than 90 µM. Moreover, the concentration giving a half-maximal response (EC50) in data set [1] came to 10 µM.
`CC1(C)Cc2cccc(OCC(=O)Nc3cc4ccccc4cn3)c2O1` [Compound 17, 2-((2,2-Dimethyl-2,3-dihydrobenzofuran-7-yl)oxy)-N-(isoquinolin-3-yl) acetamide]: the half-maximal cytotoxic concentration (CC50) at 48 h in the data set “in vitro” is greater than 125 µM. In data set [1], the EC50 is 22 µM.
Compound `Cc1cc(NC(=O)COc2cccc3c2OC(C)(C)C3)ncc1Cl` [Compound 18, N-(5-Chloro-4-methylpyridin-2-yl)-2-((2,2-dimethyl-2,3-dihydrobenzofuran-7-yl)oxy)acetamide] yielded a half-maximal cytotoxic concentration (CC50) at 48 h in the data set “in vitro” greater than 125 µM. Besides, the EC50 in data set [1] was found to be 18 µM.
Consider `Cc1nc(NC(=O)C(C)(C)Oc2cccc3c2OC(C)(C)C3)sc1C` [Compound 19, 2-((2,2-Dimethyl-2,3-dihydrobenzofuran-7-yl)oxy)-N-(4,5-dimethylthiazol-2-yl)-2-methylpropanamide], for which, in the data set “in vitro”, the half-maximal cytotoxic concentration (CC50) is greater than 90 µM and the CC50 at 48 h was greater than 90 µM. Besides, in data set [1], the EC50 is greater than 30 µM and the activity at 100 µM is 20%.
Turning to `CC1(C)Cc2cccc(OC(C)(C)C(=O)Nc3nc4ccccc4s3)c2O1` [Compound 20, N-(Benzo[d]thiazol-2-yl)-2-((2,2-dimethyl-2,3-dihydrobenzofuran-7-yl)oxy)-2-methylpropanamide], in the data set “in vitro”, the 50% cytotoxic concentration (CC50) was greater than 90 µM and the CC50 at 48 h was greater than 90 µM. In addition, in data set [1], the concentration for a half-maximal effect (EC50) was greater than 30 µM and the activity at 100 µM was found to be 56%.
For the compound `CC1(C)Cc2cccc(OCC(=O)Nc3nc(C(F)(F)F)cs3)c2O1` [Compound 21, 2-((2,2-dimethyl-2,3-dihydrobenzofuran-7-yl)oxy)-N-(4-(trifluoromethyl)thiazol-2-yl)acetamide], the half-maximal cytotoxic concentration (CC50) at 48 h in “in vitro” was greater than 100 µM. Further, in data set [1], the EC50 worked out at 0.56 µM.
For `CC1(C)Cc2cccc(OCC(=O)Nc3ccc(C#N)cn3)c2O1` [Compound 22, N-(5-Cyanopyridin-2-yl)-2-((2,2-dimethyl-2,3-dihydrobenzofuran-7-yl)oxy) acetamide], in “in vitro”, the cytotoxic concentration (CC50) at 48 h was greater than 100 µM. In addition, the EC50 in data set [1] turned out to be 25 µM.
Taken in the same sequence, the figures for `CC1(C)Cc2cccc(OCC(=O)Nc3nc(C(C)(C)C)cs3)c2O1` [Compound 23, N-(4-(tert-Butyl)thiazol-2-yl)-2-((2,2-dimethyl-2,3-dihydrobenzofuran-7-yl)oxy)acetamide] were greater than 100 µM and 4.4 µM.
For `CC1(C)Cc2cccc(OCC(=O)Nc3ccc(Cl)nn3)c2O1` [Compound 24, N-(6-Chloropyridazin-3-yl)-2-((2,2-dimethyl-2,3-dihydrobenzofuran-7-yl)oxy)acetamide] the same measures were greater than 100 µM and 4.5 µM.
For `CC1(C)Cc2cccc(OCC(=O)Nc3ccc(Br)nn3)c2O1` [Compound 25, N-(6-Bromopyridazin-3-yl)-2-((2,2-dimethyl-2,3-dihydrobenzofuran-7-yl)oxy)acetamide] the same measures were greater than 100 µM and 3.6 µM.
With `COc1ccc(NC(=O)COc2cccc3c2OC(C)(C)C3)nn1` [Compound 26, 2-((2,2-Dimethyl-2,3-dihydrobenzofuran-7-yl)oxy)-N-(6-methoxypyridazin-3-yl)acetamide], in the data set “in vitro”, the CC50 was greater than 100 µM and the cytotoxic concentration (CC50) at 48 h is greater than 100 µM. In data set [1], the EC50 was greater than 25 µM and the activity at 100 µM was found to be 53%.
Consider `CC1(C)Cc2cccc(OCC(=O)Nc3nccc(C(F)(F)F)n3)c2O1` [Compound 28, 2-((2,2-Dimethyl-2,3-dihydrobenzofuran-7-yl)oxy)-N-(4-(trifluoromethyl)pyrimidin-2-yl)acetamide], for which, in the data set “in vitro”, the CC50 is greater than 100 µM and the CC50 at 48 h is greater than 100 µM. For the same compound, in data set [1], the EC50 is greater than 25 µM and the activity at 100 µM worked out at 80%.
With `Cc1nccc(NC(=O)COc2cccc3c2OC(C)(C)C3)n1` [Compound 29, 2-((2,2-Dimethyl-2,3-dihydrobenzofuran-7-yl)oxy)-N-(2-methylpyrimidin-4-yl)acetamide], in the data set “in vitro”, the CC50 was greater than 100 µM and the CC50 at 48 h is greater than 100 µM. In data set [1], the half-maximal effective concentration (EC50) is greater than 25 µM and the activity at 100 µM worked out at 65%.
Regarding `CC1(C)Cc2cccc(OCC(=O)Nc3cccc(Br)n3)c2O1` [Compound 30, N-(6-Bromopyridin-2-yl)-2-((2,2-dimethyl-2,3-dihydrobenzofuran-7-yl)oxy)acetamide], in “in vitro”, the 50% cytotoxic concentration (CC50) at 48 h was greater than 125 µM. For the same compound, in data set [1], the EC50 came to 20 µM.
For `Cc1nc(N(Cc2ccccc2)C(=O)COc2cccc3c2OC(C)(C)C3)sc1C` [Compound 31, N-Benzyl-2-((2,2-dimethyl-2,3-dihydrobenzofuran-7-yl)oxy)-N-(4,5-dimethylthiazol-2-yl)acetamide] the same measures were greater than 100 µM and 0.21 µM.
